Earlier results, collected in patent US11510865B2, “Magnolia bark extract as a hydrophobic ligand for preferential removal of gram negative bacteria from the oral cavity” (WM. WRIGLEY JR. COMPANY, priority 2015, dated 2022).

Tested on: S. mutans (ATCC 10449)
Conditions: increased from 0.01; Jongsma et al. 2015

Oc1cc(Cl)ccc1Oc1ccc(Cl)cc1Cl [triclosan]
removal rate: 0.05
